Experimental data taken from ChEMBL document CHEMBL4699560, “Synthesis and Stereochemical Assignment of Conioidine A: DNA- and HSA-Binding Studies of the Four Diastereomers” (J Nat Prod, 2020).

Experiments:
Calf thymus DNA [1] = assay: Displacement of EtBr from calf thymus DNA incubated for 3 mins by fluorescence based assay; type: tissue-based; conditions: Bos taurus
Albumin [2] = biological target: T1, Albumin (Homo sapiens, UniProt P02768); assay: Binding affinity to human serum albumin […]; type: ADME, cell-free
Albumin [3] = biological target: T1, Albumin; assay: Binding affinity to human serum albumin assessed as quenching constant by Stern-Volmer plot analysis; type: ADME, cell-free
Calf thymus DNA [4] = assay: Displacement of EtBr from calf thymus DNA at 50 uM incubated for 3 mins by fluorescence based assay relative to control; type: tissue-based; conditions: Bos taurus
Calf thymus DNA [5] = assay: Displacement of EtBr from calf thymus DNA assessed per base pair incubated for 3 mins by fluorescence based assay; type: tissue-based; conditions: Bos taurus
Calf thymus DNA [6] = assay: Binding affinity to calf thymus DNA assessed as change in melting temperature at DNA to ligand ratio at 40:1 by spectrophotometric method; type: tissue-based; conditions: Bos taurus

T1 sequence (P02768 whole entry): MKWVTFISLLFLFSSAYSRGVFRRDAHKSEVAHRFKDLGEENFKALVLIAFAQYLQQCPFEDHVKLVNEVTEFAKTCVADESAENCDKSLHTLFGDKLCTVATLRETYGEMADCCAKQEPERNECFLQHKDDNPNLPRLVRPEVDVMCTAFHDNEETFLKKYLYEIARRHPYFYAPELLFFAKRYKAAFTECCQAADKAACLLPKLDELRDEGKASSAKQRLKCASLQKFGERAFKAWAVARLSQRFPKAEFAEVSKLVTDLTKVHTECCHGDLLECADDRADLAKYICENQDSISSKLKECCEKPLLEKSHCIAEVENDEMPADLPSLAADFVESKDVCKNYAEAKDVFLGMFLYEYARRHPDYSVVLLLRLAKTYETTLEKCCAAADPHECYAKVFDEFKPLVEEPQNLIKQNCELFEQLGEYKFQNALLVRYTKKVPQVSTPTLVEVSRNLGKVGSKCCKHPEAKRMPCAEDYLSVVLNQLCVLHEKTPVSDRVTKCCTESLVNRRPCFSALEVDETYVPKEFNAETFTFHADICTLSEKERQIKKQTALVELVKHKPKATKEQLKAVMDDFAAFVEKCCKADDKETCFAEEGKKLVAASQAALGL

SMILES	C50 (Calf thymus DNA [1])	Kb (Albumin [2])	KSV (Albumin [3])	Activity (Calf thymus DNA [4])	Kapp (Calf thymus DNA [5])	ΔTm (Calf thymus DNA [6])
C/C=C(\C)C(=O)O[C@@H](C)C[C@H]1CCCN1C(=O)CCCCCCCCC	340 µM	16 10^4/M	1.3 10^5/M			
C/C=C(\C)C(=O)O[C@H](C)C[C@H]1CCCN1C(=O)CCCCCCCCC	480 µM	6.4 10^4/M	7.2 10^5/M	93%	1.8 10^5/M	
OC[C@H]1O[C@H](O)[C@H](O)[C@@H](O)[C@@H]1O	390 µM					10.3 °C
Cn1cc(NC(=O)c2cc(NC(=O)CNC(=N)N)cn2C)cc1C(=O)NCCC(=N)N	10 µM				5.1 10^6/M	0.7 °C
C/C=C(\C)C(=O)O[C@H](C)C[C@@H]1CCCN1C(=O)CCCCCCCCC	380 µM	5.9 10^4/M	3 10^4/M			
C/C=C(\C)C(=O)O[C@@H](C)C[C@@H]1CCCN1C(=O)CCCCCCCCC	470 µM	7.2 10^4/M	3 10^4/M			
